These results are taken from patent US5252469A, “Process for producing a transglutaminase derived from streptomyces” (Amano Pharmaceutical Co., Ltd., priority 1990, dated 1993).

Peptide text beside a SMILES is read from it.

Common to all, as to assay type: biochemical
Assay [1] has as its target T1, MTGase (transglutaminase of guinea pig liver) (UniProt P08587).
T1 construct: The guinea pig liver-derived transglutaminase was prepared by the method described in Connellan et al; from tissue; host or cells: guinea pig liver
T1 sequence (P08587 2-690 limits assumed): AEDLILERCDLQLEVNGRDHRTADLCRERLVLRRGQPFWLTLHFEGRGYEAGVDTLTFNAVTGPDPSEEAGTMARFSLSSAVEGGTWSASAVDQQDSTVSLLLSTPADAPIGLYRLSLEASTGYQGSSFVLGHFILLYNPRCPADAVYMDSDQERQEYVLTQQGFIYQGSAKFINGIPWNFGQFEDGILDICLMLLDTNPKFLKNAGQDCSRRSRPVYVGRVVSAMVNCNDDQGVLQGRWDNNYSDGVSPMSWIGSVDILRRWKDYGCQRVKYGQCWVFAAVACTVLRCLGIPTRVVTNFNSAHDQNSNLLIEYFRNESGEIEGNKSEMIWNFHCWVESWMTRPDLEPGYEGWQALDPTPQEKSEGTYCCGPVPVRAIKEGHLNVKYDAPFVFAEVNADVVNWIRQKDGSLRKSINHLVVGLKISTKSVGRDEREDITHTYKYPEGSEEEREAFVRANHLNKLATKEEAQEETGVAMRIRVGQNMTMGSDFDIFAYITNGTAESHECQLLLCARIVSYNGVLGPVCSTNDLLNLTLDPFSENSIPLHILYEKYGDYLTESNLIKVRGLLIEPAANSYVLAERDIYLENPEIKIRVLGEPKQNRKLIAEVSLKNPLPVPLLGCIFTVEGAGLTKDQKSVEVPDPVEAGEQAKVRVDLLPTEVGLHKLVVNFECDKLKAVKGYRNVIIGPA
Briefly: Influence of Ca2+ on activity. On the procedure: (§1) Measurement of the activity of BTGase is carried out by performing a reaction using benzyloxycarbonyl-L-glutaminyl glycine and hydroxylamine as substrates in the absence of Ca^2+, forming an iron complex with the resulting hydroxamic acid in the presence of trichloroacetic acid, measuring absorption at 525 nm and determining the amount of hydroxamic acid by a calibration curve to calculate the activity. The BTGase activity is measured by the method described below, unless otherwise indicated.
(§2) To 0.05 ml of an enzyme solution is added 0.5 ml of Reagent A and they are mixed with each other. After reacting at 37° C. for 10 minutes, Reagent B is added thereto to discontinue the reaction and form an Fe complex. Thereafter, absorbance is measured at 525 nm. As a control, absorbance is measured after reacting a previously thermally inactivated enzyme solution in a similar manner and a difference in absorbance between the control and the enzyme solution is measured. Separately, a calibration curve is prepared using L-glutamic acid γ-monohydroxamic acid instead of the enzyme solution, and the amount of hydroxamic acid produced is determined by the difference in absorbance described above. An enzyme activity which produces 1 μmol of hydroxamic acid per 1 minute is defined as 1 unit.
Next, properties of BTGases are compared to those of guinea pig liver-derived transglutaminase. […]

Assay [2] deals with T1, MTGase (transglutaminase of guinea pig liver). Briefly: Substrate specificity: reaction of synthetic substrates with hydroxylamine. Particulars: Table 9; CBZ-Gln-Gly = 100. As for the experimental part: as §1, §2
(§3) Using each BTGase, reactions of various synthetic substrates with hydroxylamine were examined. […] In this case, the concentration of various synthetic substrates is 5 mM. In the table, CBZ, Gln, Gly and Asn are abbreviations for benzyloxycarbonyl group, glutaminyl group, glycyl group and asparaginyl group, respectively.
Next, properties of BTGases are compared to those of guinea pig liver-derived transglutaminase. The guinea pig liver-derived transglutaminase was prepared by the method described in Connellan et al., Journal of Biological Chemistry, Vol. 246, No. 4, pp. 1093-1098 (1971). As will be apparent from Tables 9 and 10, various differences in enzymological properties are noted between transglutaminase of guinea pig liver (hereafter, referred to as MTGase) which has been mainly investigated heretofore and BTGases derived from the genus Streptomyces: in particular, differences are noted in temperature stability, molecular weight, isoelectric point and substrate specificity. Further, a difference is noted in that the BTGases of the present invention act in the presence and absence of Ca^2+. Therefore, the respective enzymes of the present invention are different from MTGase in their properties.

Assay [3] relates to Enzyme No. 466 (transglutaminase of Streptomyces lavendulae No. 466). The description is as above. As for the experimental part: as §1, §2, §3
The test system of assay [4] is Enzyme No. 83 (transglutaminase of Streptomyces sp No. 83). Described as above. On the procedure: as §1, §2, §3
Setting [5] is: Table 6, synthetic substrate 5 mM, CBZ-Gln-Gly = 100.
The mark [6] stands for this setting: substrate 5 mM, text says BTGase (both enzymes).

In the case of `[Ca+2].[Cl-].[Cl-]` [CaCl2], the “Activity of MTGase (%)” value in assay [1] (1 mM CaCl2) is reported as 39%; in assay [1] (5 mM CaCl2), 100%.

As to `NCC(=O)N[C@@H](CCC(N)=O)C(=O)NCC(=O)O` [Gly--Gln--Gly, glycylglutaminyl glycine] (H-Gly-Gln-Gly-OH), in assay [2], the “Substrate specificity (%), MTGase” value stood at 0%. Further, in assay [3] (setting [5]), the “Substrate specificity, Enzyme No. 466 (reactivity of substrate with hydroxylamine)” value was determined as 0. For the same compound, in assay [3] (Table 9, CBZ-Gln-Gly = 100), the “Substrate specificity (%), Enzyme No. 466” value stood at 0%. Also, in assay [3] (setting [6]), the “Reactivity of synthetic substrate with Enzyme No. 466 (in words)” value was “No BTGase reacts”. In addition, in assay [4] (setting [5]), the “Substrate specificity, Enzyme No. 83 (reactivity of substrate with hydroxylamine)” value was 0. The “Substrate specificity (%), Enzyme No. 83” value in assay [4] (Table 9, CBZ-Gln-Gly = 100) was found to be 0%. In assay [4] (setting [6]), the “Reactivity of synthetic substrate with Enzyme No. 83 (in words)” value was “No BTGase reacts”.
